Test results: US4559346A, “Certain N-octahydro-indolizinebenzamides and their use in treating psychosis, cardiac arrhythmia and hypertension” (Beecham Group p.l.c., priority 1982, dated 1985)

System: post-synaptic Dopamine (D.A.) receptors
Assay: Inhibition of apomorphine induced climbing in the mouse
Format: in vivo
Conditions: male CDI mice, p.o., 1/2 hour post dosing, apomorphine 1 mg/kg s.c.; for ED50: Mus musculus, po, 0.5 h, read-out: ED50 (dose for 50% inhibition of apomorphine-induced climbing); for ED50 (dose for 50% inhibition of apomorphine-induced climbing): 30 min
Description: Inhibition of apomorphine induced climbing in the mouse
The test is based on that described by Protais, P., Constantin, J. and Schwartz J. C.
When mice are given a dose of 1 mg/kg apomorphine and then placed in an enclosed environment, such as an inverted wire cage, they are seen to climb around the walls. This behavioural phenomenon is thought to be a consequence of the stimulation of post-synaptic Dopamine (D.A.) receptors in the nucleus accumbens. Inhibition of apomorphine induced climbing is therefore indicative of post-synaptic D.A. receptor blockade in the accumbens.
Groups of 10 male CDI mice, weighing 25-30 g were pretreated orally with either graded doses of the test compound or vehicle, at appropriate time intervals before the subcutaneous administration of a sub-maximal dose of apomorphine (1 mg/kg). Immediately after the apomorphine injection the mice were placed in wire `climbing cages` and each animal was scored for climbing behavour at 10 and 20 minutes post apomorphine as follows:
Four paws on cage floor=0
The total score was calculated for each group of mice and expressed as a percentage inhibition of climbing.
Total score for apomorphine control

Compound	ED50	ED50 (dose for 50% inhibition of apomorphine-induced climbing)
COc1cc(N)c(Cl)cc1C(=O)N[C@H]1CCN2C[C@@H](c3ccccc3)C[C@H]2C1 (relative stereo) [2 (a), (±) 4-Amino-5-chloro-2-methoxy-N-[7'β-(3'β-phenyl-1'-aza-5'αH-bicyclo[4,3,0]nonyl)]benzamide]	0.235 mg/kg	–
COc1cc(N)c(Cl)cc1C(=O)N[C@H]1CCN2C[C@@H](c3ccc(F)cc3)C[C@H]2C1 (relative stereo) [2 (b), (±) 4-Amino-5-chloro-2-methoxy-N-[7'β-(3'β-p-fluorophenyl-1'-aza-5'αH-bicyclo[4,3,0]nonyl)]benzamide]	0.195 mg/kg	–
(±) 4-Amino-5-chloro-2-methoxy-N-(7'β-[3'-o-fluorophenyl-1'-aza-5'αH-bicyclo[4,3,0]nonyl)]benzamide [2 (d)]	–	0.52 mg/kg p.o.
COc1cc(N)c(Cl)cc1C(=O)NC1CCN2CC(C)(c3ccccc3)CCC12 (racemic) [2 (c), (±) 4-Amino-5-chloro-2-methoxy-N-[7'β-[3'-methyl-3'-phenyl-1'-aza-5'αH-bicyclo[4,3,0]nonyl)]benzamide]	–	0.48 mg/kg p.o.
